Consider five compounds from patent publication US20100221763A1, “Specific Acceptors for Transferases to Saccharides and Method for Obtaining and Using Same” (Health Research, Inc, priority 2005, published 2010).

Values joined by “and” are separate entries in the source; they are usually repeats but may differ in a detail not shown here. Equal values may be shown once.

Assay [1] addresses T1, Rat recombinant α2,3(O)ST (Rattus norvegicus, UniProt Q11205).
T1 construct: purchased Calbiochem
T1 sequence (Q11205 1-350): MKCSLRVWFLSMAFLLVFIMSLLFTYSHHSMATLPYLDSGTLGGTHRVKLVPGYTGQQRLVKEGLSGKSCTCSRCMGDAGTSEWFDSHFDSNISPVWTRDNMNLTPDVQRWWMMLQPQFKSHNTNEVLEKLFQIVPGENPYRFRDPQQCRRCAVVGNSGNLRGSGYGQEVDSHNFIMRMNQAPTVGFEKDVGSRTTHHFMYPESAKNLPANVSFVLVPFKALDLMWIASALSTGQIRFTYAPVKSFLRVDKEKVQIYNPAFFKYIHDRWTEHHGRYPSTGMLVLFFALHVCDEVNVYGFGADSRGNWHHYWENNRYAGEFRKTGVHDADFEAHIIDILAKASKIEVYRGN
In words: Sialyltransferase assay with cloned α2,3(O)ST. It is filed as biochemical. The settings on record: for Sialyltransferase activity (%) Cloned α2,3(O)ST: Table I, acceptor 7.5 mM, 100% = 40560 CPM (3-O-MeGalβ1,4GlcNAcβ1,6(Galβ1,3)GalNAcα-O-Bn); for Km / Vmax: CMP-NeuAc 150 μM, Lineweaver-Burke plot.

The subject of assay [2] is α1,2-L-FT of breast tumor BC9400. The experiment in a line: α1,2-L-FT assay, breast tumor extract. The note with it: 1 mg protein of the tissue extract. The format is biochemical, human. How it is done:
(§1) Colon tumor tissue (CC9338) and breast tumor tissue (BC9400) were obtained during surgical procedures at Roswell Park Cancer Institute and stored frozen within 1 h at −70° C. The tissues were homogenized at 4° C. with 4 volumes of 0.1M Tris Maleate […] 0.1% NaN3 using kinematica. After adjusting the concentration of Triton X-100 to 2%, these homogenates were mixed in the cold room for 1 h using Speci-Mix (Thermolyne) and then centrifuged at 20,000 g for 1 h at 4° C. The clear fat-free supernatant was stored frozen at −20° C. until use. Aliquots of 10 μL from this extract were used in assays run in duplicates. Glycosyltransferase activity in cell lysate was determined by mixing the lysates with acceptor and radiolabeled donor (monosaccharide) under the reaction conditions detailed below, followed by separation of un-reacted donor from the radioactive product using anionic or hydrophobic chromatography. In all cases, the radioactive content of isolated products was determined by using 3a70 scintillation cocktail (Research Products International, Mount Prospect, Ill.) and a Beckman LS6500 scintillation counter. Controls for each assay contained the reaction mixture with everything except the acceptor. All assays were run in duplicate.
α1,2, α1,6-, α1,3- and α1,4-fucosyltransferase (FT) assay reactions were carried out for 2 h in a reaction mixture containing 50 mM Hepes buffer (pH 7.5), 5 mM MnCl2, 7 mM ATP, 3 mM NaN3, 3 mM synthetic acceptor or 40 μg of fetuin-based acceptor, 0.05 μCi GDP-[14C]Fuc (290 mCi/mmol) and 10 μl cell extract in a total volume of 20 μl [Chandrasekaran et al., 1996]. Sulfotransferase (Sulfo T) assay reactions took 2 h and required a mixture containing 100 mM Tris-maleate (pH 7.2), 5 mM Mg Acetate, 5 mM ATP, 10 mM NaF, 10 mM BAL, 7.5 mM acceptor, 0.5 μCi of [^35S]PAPS (specific activity 2.4 Ci/mmol) and 10 μl of cell extract in a total volume of 30 μl [Chandrasekaran et al., 2004].
Dowex-1-C1 or Sep-Pak C18 cartridges were used to isolate radiolabeled product from the reaction mixture. For GalT, GalNAc-T and FT assays, the incubation mixture was diluted with 1 ml water and passed through a 1 ml Dowex-1-C1 column [Chandrasekaran et al., 1996; Chandrasekaran et al., 2001]. The column was washed twice with 1 ml of water. The breakthrough and the water wash contained the [^14C]-galactosylated or [^14C]-fucosylated products formed with neutral acceptors. 3 ml of 0.1M NaCl was used to obtain [^14C]-fucosylated products from sialylated acceptors after water elution. For sialytransferase assays, the radioactive products from benzylglycosides were separated by hydrophobic chromatography on Sep-Pak C18 cartridge (Waters, Milford, Mass.), and elution of the product was done with 3 ml methanol [Palcic et al., 1988]. […]

The subject of assay [3] is α1,3-L-FT of colon tumor CC9338. The experiment in a line: α1,3-L-FT assay, colon tumor extract. The settings on record: 1 mg protein of the tissue extract. It is filed as biochemical, human. The protocol: as §1, with “duplicate. […]” for “duplicate.”

Turning to `C=CCO[C@H]1O[C@H](CO)[C@H](O)[C@H](O[C@@H]2O[C@H](CO)[C@H](O)[C@H](O)[C@H]2O)[C@H]1NC(C)=O` [Galβ1,3GalNAcα-O—Al], in assay [1], the “Sialyltransferase activity (%) Cloned α2,3(O)ST” value stood at 112.0%. Moreover, in assay [2], the “α1,2-L-FT activity: incorporation of radioactive sugar” value (“α1,2-L-FT activity: incorporation” below) came to 5.5 CPM × 10^−3.

`CO[C@H]1[C@H](O[C@H]2[C@H](O)[C@@H](CO)OC(O)[C@@H]2NC(C)=O)O[C@H](CO)[C@H](O)[C@@H]1O` (stereo partly shown) [2-O-MeGalβ1,3GlcNAc]: in assay [1], the “Sialyltransferase activity (%) Cloned α2,3(O)ST” value is listed as 2.9%.

As to `CO[C@H]1O[C@H](CO)[C@H](O)[C@H](O[C@@H]2O[C@H](CO)[C@H](O)[C@H](O[C@@H]3O[C@H](C)[C@H](O)[C@H](O)[C@H]3O)[C@H]2NC(C)=O)[C@H]1O` [D-Fucβ1,3GalNAcβ1,3Galα-O-Me], in assay [1], the Michaelis-Menten constant (Km) is 560 µM, the Vmax came out at 1873 pmol/h and the “Sialyltransferase activity (%) Cloned α2,3(O)ST” value is given as 115.6^3%. For the same compound, in assay [2], the “α1,2-L-FT activity: incorporation” value is listed as 16.2 CPM × 10^−3.

With `CO[C@H]1O[C@H](CO)[C@H](O)[C@H](O[C@@H]2O[C@H](CO)[C@H](O)[C@H](O[C@@H]3O[C@H](CO)[C@H](O)[C@H](O)[C@H]3O)[C@H]2NC(C)=O)[C@H]1O` [Galβ1,3GalNAcβ1,3Galα-O-Me], in assay [1], the Km is 120 µM; the Vmax was 1293^13 pmol/h; the “Sialyltransferase activity (%) Cloned α2,3(O)ST” value was 120.8% and 120.8^2%. For the same compound, in assay [2], the “α1,2-L-FT activity: incorporation” value is 13.7 CPM × 10^−3.

Consider `CO[C@H]1[C@H](O[C@H]2[C@H](O)[C@@H](NC(C)=O)C(O)O[C@@H]2CO)O[C@H](CO)[C@H](O)[C@@H]1O` (stereo partly shown) [2-O-MeGalβ1,4GlcNAc], for which, in assay [1], the “Sialyltransferase activity (%) Cloned α2,3(O)ST” value is reported as 0.2%. Moreover, the “α1,3-L-FT activity: incorporation of radioactive sugar” value in assay [3] turned out to be 540.9 CPM × 10^−3.

As a reminder, the Km is the concentration of substrate that gives half-maximal velocity. For orientation: Vmax means the rate approached at saturating substrate.
